Results taken from PubChem BioAssay AID256 (DTP/NCI, 2004).
Inconclusive results and toxic doses are left out.

System: CD2F1 mice, L1210 leukemia ip, survival T/C
Experiment: NCI In Vivo Anticancer Drug Screen. Data for tumor model L1210 Leukemia (intraperitoneal) in CD2F1 (CDF1) mice
Conditions: endpoint: mean survival time, higher = longer survival
Summary of the method: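 Ratio T/C, where T is the treated-group value and C the vehicle-dosed control value, from mice implanted with a transplantable tumor.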

[1] = dose: 50.0 mg/kg/injection, schedule: Q01DX009 (ip), vehicle: acetone
[2] = dose: 100.0 mg/kg/injection, schedule: Q04DX002 (ip), vehicle: saline with Tween-80
[3] = dose: 200.0 mg/kg/injection, schedule: Q04DX002 (ip), vehicle: saline with Tween-80
[4] = dose: 400.0 mg/kg/injection, schedule: Q04DX002 (ip), vehicle: saline with Tween-80
[5] = dose: 50.0 mg/kg/injection, schedule: Q01DX009 (ip), vehicle: saline

`O=C(COc1ccc(Cl)cc1C(=O)O)NCc1cccc(NC(=O)Nc2cccc(S(=O)(=O)F)c2)c1` was tested, and the T/C (dose: 100.0 mg/kg/injection, schedule: Q01DX001 (ip), vehicle: saline with Tween-80) was 91 % of control, the T/C (dose: 200.0 mg/kg/injection, schedule: Q01DX001 (ip), vehicle: saline with Tween-80) was 93 % of control and the T/C (dose: 400.0 mg/kg/injection, schedule: Q01DX001 (ip), vehicle: saline with Tween-80) was 88 % of control.
`CC1CCC(C)(C)CC1(C)c1cc(CN(C)C)c(O)c(CN(C)C)c1` (stereo not drawn) was tested, and the T/C (dose: 12.5 mg/kg/injection, schedule: Q01DX009 (ip), vehicle: acetone) was 95 % of control, the T/C (dose: 25.0 mg/kg/injection, schedule: Q01DX009 (ip), vehicle: acetone) was 98 % of control and the T/C [1] was 98 % of control.
With `Cc1cccc(NC(=O)COc2cc(Cl)c(Cl)cc2Cl)c1` the T/C [2] was 98 % of control, the T/C [3] was 98 % of control and the T/C [4] was 94 % of control.
For `COc1cc(C)c2c(c1C=O)Oc1c(c(C)c(O)c3c1C(O)OC3=O)OC2=O` (stereo not drawn), the T/C (dose: 3.12 mg/kg/injection, schedule: Q01DX009 (ip), vehicle: saline) was 94 % of control, the T/C (dose: 6.25 mg/kg/injection, schedule: Q01DX009 (ip), vehicle: saline) was 92 % of control and the T/C (dose: 12.5 mg/kg/injection, schedule: Q01DX009 (ip), vehicle: saline) was 100 % of control. The T/C (dose: 25.0 mg/kg/injection, schedule: Q01DX009 (ip), vehicle: saline) was 92 % of control and the T/C [5] was 97 % of control.
`CN(C)c1ccc(/C=C/C(=O)Cc2ccccc2)cc1` was tested, and the T/C (dose: 100.0 mg/kg/injection, schedule: Q01DX001 (ip), vehicle: saline sonified) was 100 % of control.
For `NC(=O)C(CO)NC(=O)OCc1ccccc1` (stereo not drawn), the T/C (dose: 25.0 mg/kg/injection, schedule: Q01DX005 (ip), vehicle: water) was 103 % of control, the T/C (dose: 50.0 mg/kg/injection, schedule: Q01DX005 (ip), vehicle: water) was 104 % of control and the T/C (dose: 100.0 mg/kg/injection, schedule: Q01DX005 (ip), vehicle: water) was 95 % of control. For the same compound, the T/C (dose: 200.0 mg/kg/injection, schedule: Q01DX005 (ip), vehicle: water) was 97 % of control and the T/C (dose: 400.0 mg/kg/injection, schedule: Q01DX005 (ip), vehicle: water) was 93 % of control.
`O=C1c2ccccc2C(=O)N1CCS(=O)(=O)O` was tested, and the T/C [2] was 97 % of control, the T/C [3] was 94 % of control and the T/C [4] was 94 % of control.
`CC(=O)C(=O)C1=C2CCCN2CCc2cc3c(cc21)OCO3` was tested, and the T/C (dose: 12.5 mg/kg/injection, schedule: Q01DX009 (ip), vehicle: water) was 96 % of control, the T/C (dose: 25.0 mg/kg/injection, schedule: Q01DX009 (ip), vehicle: water) was 94 % of control and the T/C (dose: 50.0 mg/kg/injection, schedule: Q01DX009 (ip), vehicle: water) was 91 % of control. The T/C (dose: 100.0 mg/kg/injection, schedule: Q01DX009 (ip), vehicle: water) was 96 % of control.
In the case of `CNC/C(C)=C/Cl`, the T/C [1] is reported as 96 % of control and the T/C (dose: 100.0 mg/kg/injection, schedule: Q01DX009 (ip), vehicle: acetone) is reported as 90 % of control.
`CC[C@@]1(O)C(=O)OCc2c1cc1n(c2=O)Cc2cc3c(OC)cccc3nc2-1` was tested, and the T/C (dose: 0.13 mg/kg/injection, schedule: Q01DX009 (ip), vehicle: saline with Tween-80) was 105 % of control, the T/C (dose: 0.25 mg/kg/injection, schedule: Q01DX009 (ip), vehicle: saline with Tween-80) was 111 % of control and the T/C (dose: 1.0 mg/kg/injection, schedule: Q01DX009 (ip), vehicle: saline with Tween-80) was 101 % of control. For the same compound, the T/C (dose: 1.0 mg/kg/injection, schedule: Q04DX003 (ip), vehicle: other) was 105 % of control, the T/C (dose: 1.56 mg/kg/injection, schedule: Q01DX009 (ip), vehicle: saline with Tween-80) was 157 % of control and the T/C (dose: 2.0 mg/kg/injection, schedule: Q04DX003 (ip), vehicle: other) was 155 % of control. The T/C (dose: 2.25 mg/kg/injection, schedule: Q01DX009 (ip), vehicle: saline) was 158 % of control, the T/C (dose: 3.13 mg/kg/injection, schedule: Q01DX009 (ip), vehicle: saline with Tween-80) was 86 % of control and the T/C (dose: 3.8 mg/kg/injection, schedule: Q04DX003 (ip), vehicle: water) was 154 % of control. The T/C (dose: 4.0 mg/kg/injection, schedule: Q04DX003 (ip), vehicle: other) was 153 % of control, the T/C (dose: 7.5 mg/kg/injection, schedule: Q04DX003 (ip), vehicle: water) was 90 % of control and the T/C (dose: 8.0 mg/kg/injection, schedule: Q04DX003 (ip), vehicle: other) was 164 % of control.
For `CC(CN1c2ccccc2Sc2ccccc21)N(C)CCO` (stereo not drawn), the T/C (dose: 50.0 mg/kg/injection, schedule: Q01DX001 (ip), vehicle: saline) was 101 % of control, the T/C (dose: 100.0 mg/kg/injection, schedule: Q01DX001 (ip), vehicle: saline) was 101 % of control and the T/C (dose: 200.0 mg/kg/injection, schedule: Q01DX001 (ip), vehicle: saline) was 97 % of control. The T/C (dose: 400.0 mg/kg/injection, schedule: Q01DX001 (ip), vehicle: saline) was 97 % of control.
With `O=C(NNc1cccc(Cl)c1)C(O)C(O)C(O)C(O)CO` (stereo not drawn) the T/C [5] was 93 % of control, the T/C (dose: 100.0 mg/kg/injection, schedule: Q01DX009 (ip), vehicle: saline) was 108 % of control and the T/C (dose: 200.0 mg/kg/injection, schedule: Q01DX009 (ip), vehicle: saline) was 96 % of control.
